Measurements as given in US9120749B2, “Quinoline derivatives and MELK inhibitors containing the same” (ONCOTHERAPY SCIENCE, INC., priority 2010, dated 2015).
Counter-ions that a name gives are not always drawn. Like-named read-outs stand apart in the source and are kept apart here. Each block holds one molecule with its values, some of them ahead of it.

Assays:
[1] = tested on: 22Rv1; experiment: Cell-based assay: anti-proliferative activity, Cell Counting Kit-8, 72 hours (22Rv1); conditions: Homo sapiens; 22Rv1 cells
Protocol: Active candidate inhibitors against MELK were evaluated for their target-specific cytotoxicity using T47D, A549, BT-549, and HT-1197 cells was used for negative control. 100 micro-L of cell suspension was seeded onto 96-well microtiter plate (ViewPlate-96FTC, PerkinElmer). The initial cell concentration of T47D, A549, BT-549, and HT-1197 were 3,000 cells/well, 2,000 cells/well and 2,500 cells/well, respectively. Cellular growth was determined using Cell Counting Kit-8 (DOJINDO) at 72 hours after the exposure of the candidate inhibitors. […] Accurate IC50 values were calculated as described previously.

[2] = target: MELK (Homo sapiens, UniProt Q14680); experiment: Kinase assay: MELK activity, phosphorylation of FITC-labeled histone H3 peptide measured by IMAP fluorescence polarization; format: biochemical; conditions: read-out: IC50 (μM) (kinase assay)
In short: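 Substrate is FITC-labeled histone H3 peptide. Compounds come from a 12.5 mM DMSO stock, diluted so assay DMSO is 1%. The stop step adds threefold-volume progressive binding solution, followed by 0.5 h at room temperature and an FP read.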

[3] = tested on: DU4475; experiment: Cell-based assay: anti-proliferative activity, Cell Counting Kit-8, 72 hours (DU4475)
[4] = tested on: T47D cells; experiment: Cell-based assay: anti-proliferative activity, Cell Counting Kit-8, 72 hours (T47D)
In short: (§1)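 IC50 values come from CCK-8 growth measurements taken 72 hours post-treatment of plated cells with test compounds. Expression of MELK across the panel was assessed through immunoblot of unfractionated lysates.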

[5] = tested on: A549 cells; experiment: Cell-based assay: anti-proliferative activity, Cell Counting Kit-8, 72 hours (A549); conditions: 72 hours
In short: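 Cell Counting Kit-8 read-out of A549 growth after 72 hours of inhibitor exposure, cells plated in 96-well format. Values reported as IC50.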

[6] = tested on: HT-1197 cells; experiment: Cell-based assay: anti-proliferative activity, Cell Counting Kit-8, 72 hours (HT-1197, negative control without MELK expression); conditions: 72 hours
In short: as §1

[7] = tested on: DU4475 cells; experiment: Cell-based assay: anti-proliferative activity, Cell Counting Kit-8, 72 hours (DU4475)
[8] = tested on: 22Rv1 cells; experiment: Cell-based assay: anti-proliferative activity, Cell Counting Kit-8, 72 hours (22Rv1); conditions: Homo sapiens
[9] = tested on: DU4475 cells; experiment: Cell-based assay: anti-proliferative activity, Cell Counting Kit-8, 72 hours (DU4475); conditions: Homo sapiens, DU-4475
[10] = tested on: 22Rv1 cells; experiment: Cell-based assay: anti-proliferative activity, Cell Counting Kit-8, 72 hours (22Rv1); conditions: Homo sapiens; remark: listed apart in the source
[11] = 50 micro-M ATP, FITC-labeled histone H3 peptide substrate, IMAP fluorescence polarization
[12] = Homo sapiens, DU-4475, DU4475 cells
[13] = Homo sapiens, HT1197, 72 h, HT1197 cells (negative control, no MELK expression)
[14] = HT1197 cells (negative control, no MELK expression)
[15] = HT1197 cells (negative control, no MELK expression), hydrochloride
[16] = Homo sapiens, HT1197, 72 h, HT1197 cells (negative control)
[17] = HT1197 cells (negative control), hydrochloride
[18] = MELK kinase assay, IMAP fluorescence polarization, 50 micro-M ATP

Chain of MELK (Q14680 whole entry, looked up): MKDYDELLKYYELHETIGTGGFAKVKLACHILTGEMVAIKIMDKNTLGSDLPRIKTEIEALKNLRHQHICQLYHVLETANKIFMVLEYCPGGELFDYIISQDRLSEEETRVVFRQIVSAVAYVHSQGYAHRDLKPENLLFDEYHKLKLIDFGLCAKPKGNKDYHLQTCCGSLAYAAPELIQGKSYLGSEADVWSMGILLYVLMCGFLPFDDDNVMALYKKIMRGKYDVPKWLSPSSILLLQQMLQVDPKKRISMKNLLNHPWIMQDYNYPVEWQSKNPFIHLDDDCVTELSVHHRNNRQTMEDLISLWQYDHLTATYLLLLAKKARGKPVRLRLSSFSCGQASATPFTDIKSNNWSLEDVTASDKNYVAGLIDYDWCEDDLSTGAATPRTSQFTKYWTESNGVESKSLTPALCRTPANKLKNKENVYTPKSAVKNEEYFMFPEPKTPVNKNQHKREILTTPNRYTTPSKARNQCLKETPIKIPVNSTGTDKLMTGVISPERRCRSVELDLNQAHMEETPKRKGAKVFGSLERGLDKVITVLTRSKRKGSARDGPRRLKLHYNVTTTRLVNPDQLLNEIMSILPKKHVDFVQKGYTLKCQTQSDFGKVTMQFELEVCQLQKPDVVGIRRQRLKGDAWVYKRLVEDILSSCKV

SMILES: O=C(c1cnc2ccc(-c3cc(F)c(O)c(Cl)c3)cc2c1Nc1ccc(CN2CCCC2)cc1)C1CC1 [Example 396, {6-(3-chloro-5-fluoro-4-hydroxyphenyl)-4-[4-(pyrrolidin-1-ylmethyl)phenylamino]quinolin-3-yl}(cyclopropyl)methanone]
IC50 [1]: 0.38 µM
IC50 [2, 11]: 0.0088 µM
IC50 [3, 12]: 0.084 µM
IC50 ([4]; Homo sapiens, T47D, 72 h): 0.21 µM
IC50 ([5]; Homo sapiens, A549, 72 h): 0.087 µM
IC50 [6, 13]: 1.6 µM

SMILES: CN(C)Cc1ccc(Nc2c(S(C)(=O)=O)cnc3ccc(-c4cc(Cl)c(O)c(Cl)c4)cc23)cc1 [Example 401, 2,6-dichloro-4-(4-(4-((dimethylamino)methyl)phenylamino)-3-(methylsulfonyl)quinolin-6-yl)phenol hydrochloride]
IC50 [1]: 0.52 µM
IC50 ([2]; 50 micro-M ATP, FITC-labeled histone H3 peptide substrate, IMAP fluorescence polarization, hydrochloride): 0.0055 µM
IC50 ([3]; DU4475 cells, hydrochloride): 0.11 µM
IC50 ([4]; 72 hours, hydrochloride): 0.19 µM
IC50 ([5]; hydrochloride): 0.44 µM
IC50 [6, 13]: 2.2 µM

SMILES: CC(=O)c1cnc2ccc(-c3cc(Cl)c(O)c(Cl)c3)cc2c1Nc1ccc(CN2CCCC2)cc1 [Example 416, 1-(6-(3,5-dichloro-4-hydroxyphenyl)-4-(4-(pyrrolidin-1-ylmethyl)phenylamino)quinolin-3-yl)ethanone hydrobromide]
IC50 [1]: 0.19 µM
IC50 ([2]; 50 micro-M ATP, FITC-labeled histone H3 peptide substrate, IMAP fluorescence polarization, hydrobromide): 0.0032 µM
IC50 ([3]; DU4475 cells, hydrobromide): 0.053 µM
IC50 ([4]; 72 hours, hydrobromide): 0.066 µM
IC50 ([5]; hydrobromide): 0.11 µM
IC50 ([6]; HT1197 cells (negative control, no MELK expression), hydrobromide): 6.1 µM

SMILES: CN(C)C[C@H]1CC[C@H](Nc2c(S(C)(=O)=O)cnc3ccc(-c4cc(Cl)c(O)c(Cl)c4)cc23)CC1 [Example 421]
IC50 [1]: 0.64 µM
IC50 [2, 11]: 0.0017 µM
IC50 ([3]; DU4475 cells): 0.086 µM
IC50 ([4]; 72 hours): 0.47 µM
IC50 [5]: 0.68 µM
IC50 [6, 14]: 2.1 µM

SMILES: O=C(c1cnc2ccc(-c3cc(F)c(O)c(Cl)c3)cc2c1Nc1ccc(N2CCNCC2)nc1)C1CC1 [Example 425, (6-(3-chloro-5-fluoro-4-hydroxyphenyl)-4-(6-(piperazin-1-yl)pyridin-3-ylamino)quinolin-3-yl)(cyclopropyl)methanone]
IC50 [1]: 0.082 µM
IC50 [2, 11]: 0.0027 µM
IC50 [3, 12]: 0.044 µM
IC50 ([4]; Homo sapiens, T47D, 72 h): 0.042 µM
IC50 ([5]; Homo sapiens, A549, 72 h): 0.16 µM
IC50 [6, 13]: 1.4 µM

SMILES: CC(=O)c1cnc2ccc(-c3cc(F)c(O)c(Cl)c3)cc2c1Nc1ccc(N2CCN(C)CC2)nc1 [Example 488, 1-(6-(3-chloro-5-fluoro-4-hydroxyphenyl)-4-(6-(4-methylpiperazin-1-yl)pyridin-3-ylamino)quinolin-3-yl)ethanone]
IC50 [1]: 0.38 µM
IC50 [2]: 0.0041 µM
IC50 ([3]; DU4475 cells): 0.14 µM
IC50 ([4]; 72 hours): 0.084 µM
IC50 [5]: 0.2 µM
IC50 [6, 14]: 2.1 µM

SMILES: COc1cc(-c2ccc3ncc(C(=O)C4CC4)c(N[C@H]4CC[C@H](CN)CC4)c3c2)cc(Cl)c1O [Example 494, (4-(4-(aminomethyl)cyclohexylamino)-6-(3-chloro-4-hydroxy-5-methoxyphenyl)quinolin-3-yl)(cyclopropyl)methanone hydrochloride]
IC50 [1]: 0.13 µM
IC50 ([2]; hydrochloride): 0.0016 µM
IC50 ([3]; DU4475 cells, hydrochloride): 0.055 µM
IC50 ([4]; 72 hours, hydrochloride): 0.081 µM
IC50 ([5]; hydrochloride): 0.085 µM
IC50 [6, 15]: 0.48 µM

SMILES: NCc1ccc(Nc2c(C(=O)C3CC3)cnc3ccc(-c4cc(F)c(O)c(Cl)c4)cc23)cc1 [Example 505, (4-(4-(aminomethyl)phenylamino)-6-(3-chloro-5-fluoro-4-hydroxyphenyl)quinolin-3-yl)(cyclopropyl)methanone hydrochloride]
IC50 [1]: 0.088 µM
IC50 ([2]; hydrochloride): 0.0027 µM
IC50 ([3]; DU4475 cells, hydrochloride): 0.026 µM
IC50 ([4]; 72 hours, hydrochloride): 0.063 µM
IC50 ([5]; hydrochloride): 0.067 µM
IC50 [6, 15]: 0.4 µM

SMILES: NCc1ccc(Nc2c(C(=O)C3CC3)cnc3ccc(-c4cc(Cl)c(O)c(Cl)c4)cc23)cc1 [Example 508, (4-(4-(aminomethyl)phenylamino)-6-(3,5-dichloro-4-hydroxyphenyl)quinolin-3-yl)(cyclopropyl)methanone hydrochloride]
IC50 [1]: 0.099 µM
IC50 ([2]; hydrochloride): 0.0017 µM
IC50 ([3]; DU4475 cells, hydrochloride): 0.02 µM
IC50 ([4]; 72 hours, hydrochloride): 0.078 µM
IC50 ([5]; hydrochloride): 0.067 µM
IC50 [6, 15]: 0.49 µM

SMILES: CN[C@H]1CC[C@H](Nc2c(C(=O)C3CC3)cnc3ccc(-c4cc(Cl)c(O)c(OC)c4)cc23)CC1 [Example 517, {6-(3-Chloro-4-hydroxy-5-methoxyphenyl)-4-[trans-4-(methylamino)cyclohexylamino]quinolin-3-yl}(cyclopropyl)methanone]
IC50 [2]: 0.0014 µM
IC50 ([7]; Homo sapiens, DU-4475, 72 h): 0.048 µM
IC50 ([4]; Homo sapiens, T47D, 72 h): 0.067 µM
IC50 ([5]; Homo sapiens, A549, 72 h): 0.072 µM
IC50 [8]: 0.18 µM
IC50 [6, 16]: 0.38 µM

SMILES: CN[C@H]1CC[C@H](Nc2c(C(C)=O)cnc3ccc(-c4cc(Cl)c(O)c(OC)c4)cc23)CC1 [Example 543, 1-(6-(3-chloro-4-hydroxy-5-methoxyphenyl)-4-(1R,4R)-4-(methylamino)cyclohexylamino)quinolin-3-yl)ethanone dihydrochloride]
IC50 ([2]; dihydrochloride): 0.0018 µM
IC50 ([7]; dihydrochloride): 0.051 µM
IC50 ([4]; 72 hours, dihydrochloride): 0.047 µM
IC50 ([5]; dihydrochloride): 0.076 µM
IC50 [8]: 0.14 µM
IC50 ([6]; HT1197 cells (negative control), dihydrochloride): 1.1 µM

SMILES: O=C(c1cnc2ccc(-c3cc(Cl)c(O)c(Cl)c3)cc2c1N[C@H]1CC[C@H](CN2CCCC2)CC1)C1CC1 [Example 585, cyclopropyl(6-(3,5-dichloro-4-hydroxyphenyl)-4-(1R,4R)-4-(pyrrolidin-1-ylmethyl)cyclohexylamino)quinolin-3-yl)methanone hydrochloride]
IC50 ([7]; hydrochloride): 0.043 µM
IC50 ([4]; 72 hours, hydrochloride): 0.12 µM
IC50 ([5]; hydrochloride): 0.073 µM
IC50 [8]: 0.1 µM
IC50 [6, 17]: 0.78 µM

SMILES: CN(C)CCc1ccc(Nc2c(C(=O)C3CC3)cnc3ccc(-c4cc(Cl)c(O)c(Cl)c4)cc23)cc1 [Example 614, cyclopropyl(6-(3,5-dichloro-4-hydroxyphenyl)-4-(4-(2-(dimethylamino)ethyl)phenylamino)quinolin-3-yl)methanone hydrochloride]
IC50 ([2]; hydrochloride): 0.0016 µM
IC50 ([7]; hydrochloride): 0.024 µM
IC50 ([4]; 72 hours, hydrochloride): 0.12 µM
IC50 [8]: 0.12 µM
IC50 [6, 17]: 1.6 µM

IC50 ([4]; 72 hours, hydrochloride): 0.32 µM
IC50 ([5]; hydrochloride): 0.28 µM
IC50 [8]: 0.51 µM
SMILES: CN1CCN(C[C@H]2CC[C@H](Nc3c(C(=O)C4CC4)cnc4ccc(-c5cc(Cl)c(O)c(Cl)c5)cc34)CC2)CC1 [Example 619, cyclopropyl(6-(3,5-dichloro-4-hydroxyphenyl)-4-(1R,4R)-4-((4-methylpiperazin-1-yl)methyl)cyclohexylamino)quinolin-3-yl)methanone hydrochloride]
IC50 ([7]; hydrochloride): 0.15 µM
IC50 [6, 17]: 2.6 µM

SMILES: CC(N)C(=O)N[C@H]1CC[C@H](Nc2c(C(=O)C(C)(C)C)cnc3ccc(-c4cc(F)c(O)c(Cl)c4)cc23)CC1 (stereo partly drawn) [Example 932, 2-amino-N-(1R,4R)-4-((6-(3-chloro-5-fluoro-4-hydroxyphenyl)-3-pivaloyl-quinolin-4-yl)amino)cyclohexyl) propanamide hydrochloride]
IC50 [2, 18]: 0.047 µM
IC50 [9]: 1 µM
IC50 ([4]; Homo sapiens, T47D, 72 h): 0.71 µM
IC50 ([5]; Homo sapiens, A549, 72 h): 4.7 µM
IC50 [10]: 1.6 µM
IC50 [6, 16]: 7.6 µM

SMILES: CCC(=O)c1cnc2ccc(-c3cc(Cl)c(O)c(Cl)c3)cc2c1Nc1ccc(N2CCC[C@H](N)C2)nc1 [Example 934, (S)-1-(4-(6-(3-aminopiperidin-1-yl)pyridin-3-ylamino)-6-(3,5-dichloro-4-hydroxyphenyl)quinolin-3-yl)propan-1-one]
IC50 [2, 18]: 0.0012 µM
IC50 [9]: 0.016 µM
IC50 ([4]; Homo sapiens, T47D, 72 h): 0.014 µM
IC50 ([5]; Homo sapiens, A549, 72 h): 0.034 µM
IC50 [10]: 0.02 µM
IC50 [6, 16]: 0.6 µM

SMILES: CC(=O)c1cnc2ccc(-c3ccc(O)cc3)cc2c1N[C@H]1CC[C@H](CN(C)C)CC1 [Example 935, 1-(4-(1R,4R)-4-((dimethylamino)methyl)cyclohexylamino)-6-(4-hydroxyphenyl)quinolin-3-yl) ethanone dihydrochloride]
IC50 [2, 18]: 0.08 µM
IC50 [9]: 1.5 µM
IC50 ([4]; Homo sapiens, T47D, 72 h): 1.6 µM
IC50 ([5]; Homo sapiens, A549, 72 h): 0.86 µM
IC50 [10]: 0.53 µM
IC50 [6, 16]: 4.3 µM
